In patent publication US20190225651A1, “COMPOUNDS FOR INDUCING TISSUE FORMATION AND USES THEREOF” (HISTIDE AG, priority 2015, published 2019):
Ends that are not written are not given here.

What was measured:
hMSCs = assay: Loss of stemness, STRO-1 immunostaining; assay type: cell-based, human; settings: compound in solution in cell culture media
Protocol: (§1) The cells were first fixed for 20 min with 4% paraformaldehyde/PBS at 4° C. After fixation, the cells were permeabilized in PBS containing 1% Triton X-100 for 15 min. Runx2, Osterix, Stro-1, Vinculin, Phalloidin, Osteopontin, Sox2, Sox9 antibodies were visualized by treating the cells with 1% (v/v) specific monoclonal antibodies for 1 hour at 37° C. Then the samples were incubated with Alexa Fluor® 568 or 647 (F(ab′)2 fragment of IgG(H+L)) during 30 min at room temperature. The cell nuclei were counterstained in 20 ng/mL DAPI for 10 min at room temperature.
For this type of quantification the freeware image analysis ImageJ® software was used. The raw image was first converted to an 8-bit file, and then the unsharp mask feature was used (settings 1:0.2) to remove the image background (rolling ball radius 10). After smoothing, the resulting image, which appears similar to the original photomicrograph but with minimal background, was then converted to a binary image by setting a threshold. Threshold values were determined empirically by selecting a setting, which gave the most accurate binary image for a subset of randomly selected photomicrographs. The cell area was determined by manual delineation on raw fluorescent images. Total contact area and mean contact area per cell were calculated by “analyse particules” in ImageJ®. A minimum of […] per condition were analyzed. Stro-1 expression was determined using this procedure.
hMSCs were cultured on conventional cell culture plastic plates with and without the presence in the cell culture media of different GFR-binding compounds as defined hereins (SEQ ID NO: 39 to 45) in solution. […] This was probed by Stro-1 immunostaining after cell fixation as described in the Methods section. The quantification of Stro-1 positive contact numbers and areas was performed as described in the Methods section. A minimum of 30 cells per condition were analyzed. One should note that it is commonly admitted that the expression of STRO-1 in a cell is indicative of a cell that is in a substantially non-differentiated state and the decrease of its expression of at least about 20% is indicative of a cell that has started a processus of differentiation but which may not result in the differentiation of the cell. A decrease of more than 50% would be indicative of the presence of a significant shift towards a differentiated state. A decrease of more than 70% would be indicative of the presence of a very important shift towards a differentiated state. A sustained decrease (e.g. for at least 96 h) of more than 50% or 70% would be indicative of the presence of an even more important shift towards a differentiated state.
Likewise, hMSCs were cultured on conventional cell culture plastic plates with and without the presence in the cell culture media of different GFR-binding compounds as defined herein (SEQ ID NO: 1581 to 1606) in solution. […] This strong decrease was also confirmed after 96 h.

osteoblast progenitors = assay: Osteogenic differentiation of osteoblast progenitors on peptide-coated materials (Osteopontin staining, Runx2 Q-PCR); assay type: cell-based
Protocol: as §1
Total RNA was extracted by using the RNeasy total RNA kit (Qiagen®) according to the manufacturer's instructions. Purified total RNA was used as a template in order to make cDNA by a reverse transcription reaction (Gibco BrI®) with random primers (Invitrogen®). The cDNA was then used as a template for a real-time PCR amplification in the presence of SYBR green reagents (Bio-Rad®) by using a thermocycler (iCycler, Biorad®). Data were analyzed with the iCycler IQ™® software and compared by the ΔΔCt method. Briefly, the mean Ct value of the target gene was normalized to its averaged Ct values of the housekeeping gene (HPRT) to give a ΔCt value, which was then normalized to a control sample to obtain a ΔΔCt value. The results were obtained from two series of experiments performed in a triplicate.
The effect of these GFR-binding compounds as defined herein (SEQ ID NO: 19 and 20) on the differentiation of osteoblast progenitors was evaluated. These osteoblast progenitors were seeded onto the apatite ceramics or on type-I collagen sponge that were both coated with osteogenic peptides. […] This was seen from Osteopentin immunofluorescence staining after cell fixation as described in the Methods section (FIG. 7).
An increase in the Runx2 gene expression after 24 hours of culture (FIG. 8a) was observed by using Quantitative Real Time Polymerase Chain Reaction as described in the Methods section.

Hair Follicle Stem Cells = assay: Loss of quiescence and activation of hair follicle stem cells (Sox2, BMP-6); assay type: cell-based, Mouse
Protocol: Isolated Hair Follicle Stem Cells were cultured with and without GFR-binding compounds as defined herein (SEQ ID NO: 29 and 30). An increase in the Sox2 protein expression was observed illustrating the activation of these stem cells (FIG. 13a). In parallel, a decrease in the BMP-6 release in the cell culture medium was observed (FIG. 13b).

Substance | STRO-1 Expression (%) after 48 h (hMSCs) [%] | further results
1581 (GGGGGGGGGDENEKVVNDEGLESVPEDLSSLSVLFFDENEKVV; also: cyclic, closure not given here) [compound 1581] | 33 | 
1582 (GGGGGGGGGDDSSNVIRVPSTSSVPTGQSAISTLYLDDSSNVI; also: cyclic, closure not given here) [compound 1582] | 29 | 
1583 (GGGGGGGGGDDSSNVIRVPSTSSAPTKMNAISMLYFDENEKVV; also: cyclic, closure not given here) [compound 1583] | 34 | 
1584 (GGGGGGGGGDENEKVVGIPEPSSAPVDLKPLSTLYVDENEKVV; also: cyclic, closure not given here) [compound 1584] | 31 | 
1585 (AAAAAAAAADENEKVVAASKASSVPQEEEPLPMVYYDAANNVV; also: cyclic, closure not given here) [compound 1585] | 27 | 
1586 (GGGGGGGGGDDSSNVIKIPKASSVPTGGSNITVQIMDDSSNVI; also: cyclic, closure not given here) [compound 1586] | 31 | 
1587 (AAAAAAAAADENEKVVAASKASSSRVELRSVKIAKVDDSSNVI; also: cyclic, closure not given here) [compound 1587] | 33 | 
1588 (GGGGGGGGGDENEKVVKIPKASSTQVRLRPVQIRKIDAANNVV; also: cyclic, closure not given here) [compound 1588] | 30 | 
1589 (GGGGGGGGGDDSSNVISTPPTSSSRVQLSAISMLYLDDSSNVI; also: cyclic, closure not given here) [compound 1589] | 22 | 
1590 (GGGGGGGGGDENEKVVRVPSTSSTQVKMSAISMLYLDENEKVV; also: cyclic, closure not given here) [compound 1590] | 23 | 
1591 (AAAAAAAAADAANNVVKIPKASSSRVRLSSLSTLFFDAANNVV; also: cyclic, closure not given here) [compound 1591] | 21 | 
1592 (GGGGGGGGGDDSSNVIAASKASSTPTDLNAISTLYFDDSSNVI; also: cyclic, closure not given here) [compound 1592] | 30 | 
1593 (GGGGGGGGGDENEKVVRVPSTSSTQVDLNAISVLYFDENEKVV; also: cyclic, closure not given here) [compound 1593] | 32 | 
1594 (AAAAAAAAADAANNVVGIPEPSSVSQELSATSMLYYDAANNVV; also: cyclic, closure not given here) [compound 1594] | 31 | 
1595 (GGGGGGGGGDDSSNVIGIPEPSSAPTRLEPISMLYLDENEKVV; also: cyclic, closure not given here) [compound 1595] | 27 | 
1596 (GGGGGGGGGDENEKVVKIPKASSVSQQLEPISTLYLDENEKVV; also: cyclic, closure not given here) [compound 1596] | 19 | 
1597 (GGGGGGGGGDENEKVVSTPPTSSVPTEVSPINTLYFDENEKVV; also: cyclic, closure not given here) [compound 1597] | 38 | 
1598 (AAAAAAAAADENEKVVKIPKASSVPTKMKPLSVLYVDDSSNVI; also: cyclic, closure not given here) [compound 1598] | 37 | 
1599 (GGGGGGGGGDDSSNVISTPPTSSVSQKMKPLSILYVDDSSNVI; also: cyclic, closure not given here) [compound 1599] | 35 | 
1600 (GGGGGGGGGFDNDENVVRVPSTSSVPEKMEPLTMLYYFDNDENVV; also: cyclic, closure not given here) [compound 1600] | 29 | 
1601 (GGGGGGGGGFDNDENVVSTPPTSSTPTKMSNITTQIMFDNDENVV; also: cyclic, closure not given here) [compound 1601] | 41 | 
1602 (AAAAAAAAADENEKVVRVPSTSSVPAEESNITVQIMDDSSNVI; also: cyclic, closure not given here) [compound 1602] | 42 | 
1603 (GGGGGGGGGFDNDENVVAASKASSVPQRLRSVKVAKVFDNDENVV; also: cyclic, closure not given here) [compound 1603] | 34 | 
1604 (AAAAAAAAADAANNVVKIPKASSTQVRLRSVKTAKVDAANNVV; also: cyclic, closure not given here) [compound 1604] | 35 | 
1605 (AAAAAAAAADENEKVVAASKASSVPEKMRPVQTRKIDDSSNVI; also: cyclic, closure not given here) [compound 1605] | 30 | 
1606 (GGGGGGGGGFDNDENVVGIPEPSSAPVDMRPVQIRKIFDNDENVV; also: cyclic, closure not given here) [compound 1606] | 43 | 
SEQ ID NO: 20: osteogenic cyclic GFR-binding compound of the sequence listing; sequence not printed (GTPGPSAISTLYLGGGGGGG; also: cyclic, ring type and places not given here) |  | differentiation into mature osteoblasts (osteoblast progenitors; 48 hours on coated apatite ceramics or type-I collagen sponge): differentiated into mature osteoblasts; production of extracellular matrix proteins such as Osteopontin (OPN) (osteoblast progenitors; versus native type-I collagen sponge or native apatite ceramics): produced extensive amounts of extracellular matrix proteins such as Osteopontin (OPN)
SEQ ID NO: 29: cyclic GFR-binding compound activating hair follicle stem cells; sequence not printed (DENKNSSLSILFFDENKNGGGGGG; also: cyclic, ring type and places not given here) |  | BMP-6 release in the cell culture medium (Hair Follicle Stem Cells): decrease; Sox2 protein expression (Hair Follicle Stem Cells): increase
SEQ ID NO: 30: cyclic GFR-binding compound activating hair follicle stem cells; sequence not printed (DENEKSSLSILFFDENEKGGGGGG; also: cyclic, ring type and places not given here) |  | BMP-6 release in the cell culture medium (Hair Follicle Stem Cells): decrease; Sox2 protein expression (Hair Follicle Stem Cells): increase
